PubChem BioAssay (NCI)
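Tested at 5 concentrations; 48 h exposure; 96-well plates; endpoints linearly interpolated, else capped at highest concentration. GI50 = concentration required for 50% inhibition of growth. TGI denotes the concentration required for complete inhibition of growth.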

Legend:
Experiment in all cases: NCI tumour cell line growth inhibition, 48 h; in the data active = GI50 below about 0.43 µM; inactive = the rest
[1] = tested on: HOP-62 NSCLC
[2] = tested on: CAKI-1 renal
[3] = tested on: SNB-78 CNS
[4] = tested on: HOP-18 NSCLC
[5] = tested on: DMS 273 small cell lung
[6] = tested on: DLD-1 colon
[7] = tested on: RXF-631 renal
[8] = tested on: DMS 114 small cell lung
[9] = tested on: LXFL 529 NSCLC
[10] = tested on: SF-539 CNS
[11] = tested on: XF 498 CNS
[12] = tested on: RXF 393 renal
[13] = tested on: KM20L2 colon
[14] = tested on: M19-MEL melanoma

Cc1ccc2[nH]c3c(C)c4c(c(C)c3c2c1)CN(C)C=C4
11.8 µM: TGI [13]
2.35 µM: TGI [9]
13.1 µM: TGI [6]
26.9 µM: TGI [4]
6.06 µM: TGI [11]
8.75 µM: TGI [7]
2.1 µM: TGI [8]
12.9 µM: TGI [12]
inactive: GI50 [2] 1.21 µM | GI50 [8] 0.437 µM
1.62 µM: TGI [10]
5.89 µM: TGI [2]
3.41 µM: TGI [3]
3.09 µM: TGI [5]
2.71 µM: TGI [1]

COc1c(C)c2c(c3c1c(=O)c1ccccc1n3C)C=CC(C)(C)O2
85.8 µM: TGI [1]
94.4 µM: TGI [9]
72.9 µM: TGI [3]
43 µM: TGI [8]
82.9 µM: TGI [2]
82.4 µM: TGI [14]
> 100 µM: TGI [6] | TGI [12] | TGI [13]
38 µM: TGI [5]
44.9 µM: TGI [10]
55.7 µM: TGI [11]
97.8 µM: TGI [4]

CC1CN(c2ccc(Cl)cc2)CC(C)(C)OC(=O)O1 (centres undefined)
> 100 µM: TGI [1] | TGI [2] | TGI [14] | TGI [3] | TGI [5] | TGI [6] | TGI [7] | TGI [8] | TGI [9] | TGI [10] | TGI [11] | TGI [12] | TGI [13]

COc1cc(OC)c2ssc3c(OC)cc(OC)c4ssc1c2-c43
> 100 µM: TGI [1] | TGI [2] | TGI [14] | TGI [3] | TGI [4] | TGI [5] | TGI [6] | TGI [8] | TGI [9] | TGI [10] | TGI [11] | TGI [12] | TGI [13]

CC(=O)NC(CCCCN(Cc1ccccc1)C(=O)NCCCl)C(=O)NCc1ccccc1 (centres undefined)
> 100 µM: TGI [1] | TGI [2] | TGI [4] | TGI [5] | TGI [6] | TGI [7] | TGI [8] | TGI [9] | TGI [10] | TGI [13]

CCOc1cc2ccc3c4cc(OC)c(OC)cc4cnc3c2cc1OCC
> 100 µM: TGI [1] | TGI [2] | TGI [14] | TGI [3] | TGI [4] | TGI [6] | TGI [8] | TGI [9] | TGI [10] | TGI [11] | TGI [13]

N#CC(/C(=N\NC(=O)c1ccncc1)C(=O)Nc1ccc([N+](=O)[O-])cc1[N+](=O)[O-])c1nc(-c2ccc(Br)cc2)cs1 (centres undefined)
> 100 µM: TGI [1] | TGI [2] | TGI [14] | TGI [3] | TGI [6] | TGI [7] | TGI [8] | TGI [9] | TGI [10] | TGI [13]

O=C(/C=C/c1ccc(O)c(O)c1)OC1C[C@@](O)(C(=O)O)C[C@@H](O)[C@H]1OC(=O)/C=C/c1ccc(O)c(O)c1 (some centres undefined)
> 100 µM: TGI [1] | TGI [14] | TGI [3] | TGI [4] | TGI [5] | TGI [6] | TGI [8] | TGI [9] | TGI [10] | TGI [11] | TGI [12] | TGI [13]

O=c1cc(-c2ccccc2)oc2cc(OCC(O)COc3ccc4c(=O)cc(-c5ccccc5)oc4c3)ccc12
24.6 µM: TGI [1]
> 100 µM: TGI [2] | TGI [14] | TGI [4] | TGI [5] | TGI [6] | TGI [8] | TGI [9] | TGI [13]
57 µM: TGI [10]
58.9 µM: TGI [3]
48.1 µM: TGI [11]
